Literature values as cited in patent US20050147578A1, “Topical cosmetic composition having a natural plant active ingredient and method of using same” (Avon Products, Inc., priority 2001, published 2005).

Test system: Heat shock 70 protein

O=[As]O [Sodium arsenite, sodium arsenite]
production of heat shock protein (known effect of positive control): stimulate the production of heat shock protein
